Laboratory results: patent US6596288B2, “Use of sterols as active ingredient in a cosmetic composition against adiposity” (Codif International SA, priority 2000, dated 2003)

Legend:
[1] = test system: human adipocytes; experiment: incorporation of [2-14C]-acetate into lipids (LIPOGENESIS) by isolated human adipocytes; assay type: cell-based; conditions: 4 h
Experimental: (§1) In these experiments, adipocytes were isolated from abdominal restorative surgeries sampled in women. The experiment took place the day of the sampling. Fragments of adipose tissues were incubated for 30 minutes at 37° C. in the presence of collagenase, then the isolated adipocytes were washed and taken up in medium MEM buffered with bicarbonate, in the presence of antibiotics (penicillin/streptomycin), glutamine (2 mM), and delipidated bovine serum albumin (0.5%).
The tests concerning the effect on lipogenesis were then conducted in the following manner.
Adipocytes (90 μl of ¼ diluted suspension) were incubated for 1 hour, either with a control medium (4 hours), with molecules known to inhibit the neosynthesis of fatty acids (EPA), as for example […], or with previously diluted extracts (added under 100 μl).
As to the sterols and to the lipidic extracts of plants or algae, they were diluted in mineral oil which has been verified to not inhibit incorporation or extraction of adipocyte lipids. Then, 10 μl of [2^14C]-acetate, 50 μCi/ml, were added, and the samples were either cultivated at 37° C. in the presence of 5% CO2 for 4 additional hours, or immediately frozen at −80° C. (control t0).
At the times indicated, the samples were frozen at −80° C. The lipids were then extracted according to the method of Bligh and Dyer (extraction methanol/chloroform/water), then dried under nitrogen. The radioactivity incorporated was then counted by liquid scintillation.

[2] = test system: human adipocytes; experiment: liberation of NEFA (non-esterified fatty acids) (LIPOLYSIS) by isolated human adipocytes; assay type: cell-based; conditions: for % Control (NEFA liberation) / Average of the NEFA: 2 hours at 37° C.
Experimental: as §1
As to the tests concerning the effect on lipolysis, they were conducted in the following manner. Adipocytes (540 μl of suspension) were incubated for 2 hours in a water bath at 37° C., with agitation, in the presence of 60 μl of different sterols. The experiments were carried out in triplicate.
Then, the non-esterified fatty acids (AGNE) released by the adipocytes were determined in the sub-adipocyte media. The values obtained were treated by an analysis of variance (ANOVA) by means of the multiple comparison test of Dunnett. The values were considered as significant when the probability p was less than the threshold of significance 0.05.

[3] = 0.01 mM (10^−5 M), absence of insulin
[4] = 0.01 mM (10^−5 M), presence of insulin (1 nM)
[5] = 0.1 mM (10^−4 M), absence of insulin
[6] = 0.1 mM (10^−4 M), presence of insulin (1 nM)
[7] = 1 mM (10^−3 M), absence of insulin
[8] = 1 mM (10^−3 M), presence of insulin (1 nM)

Structure (SMILES): CC[C@H](/C=C/[C@@H](C)[C@H]1CC[C@H]2[C@@H]3CC=C4C[C@@H](O)CC[C@]4(C)[C@H]3CC[C@]12C)C(C)C [Stigmasterol, stigmasterol]
- % control (incorporation of acetate) [1, 3]: 95%
- % inhibition (incorporation of acetate) [1, 3]: weak and non-significant
- Average of cpm (incorporation of acetate) [1, 3]: 198442 cpm
- cpm - t0 test (incorporation of acetate) [1, 3]: 191977 cpm
- % control (incorporation of acetate) [1, 4]: 98%
- % inhibition (incorporation of acetate) [1, 4]: 2%
- Average of cpm (incorporation of acetate) [1, 4]: 235529 cpm
- cpm - t0 test (incorporation of acetate) [1, 4]: 229064 cpm
- % inhibition (incorporation of acetate) ([1]; 0.01 mM (10^−5 M), presence of insulin (1 nM), listed as stigmasterol): less than 5%
- % control (incorporation of acetate) [1, 5]: 96%
- % inhibition (incorporation of acetate) [1, 5]: weak and non-significant
- Average of cpm (incorporation of acetate) [1, 5]: 200467 cpm
- cpm - t0 test (incorporation of acetate) [1, 5]: 194002 cpm
- % control (incorporation of acetate) [1, 6]: 97%
- % inhibition (incorporation of acetate) [1, 6]: 3%
- Average of cpm (incorporation of acetate) [1, 6]: 234524 cpm
- cpm - t0 test (incorporation of acetate) [1, 6]: 228059 cpm
- % control (incorporation of acetate) [1, 7]: 101%
- % inhibition (incorporation of acetate) [1, 7]: weak and non-significant
- Average of cpm (incorporation of acetate) [1, 7]: 210055 cpm
- cpm - t0 test (incorporation of acetate) [1, 7]: 203590 cpm
- % control (incorporation of acetate) [1, 8]: 94%
- % inhibition (incorporation of acetate) [1, 8]: 6%
- Average of cpm (incorporation of acetate) [1, 8]: 227385 cpm
- cpm - t0 test (incorporation of acetate) [1, 8]: 220920 cpm
- inhibition at 10 µM ([1]; Homo sapiens, Adipocyte, 0.01 mM (10^−5 M), absence of insulin): 5%
- inhibition at 100 µM ([1]; Homo sapiens, Adipocyte, 0.1 mM (10^−4 M), absence of insulin): 4%
- inhibition at 100 µM ([1]; Homo sapiens, Adipocyte, 0.1 mM (10^−4 M), presence of insulin (1 nM)): < 5%
- inhibition at 1000 µM ([1]; Homo sapiens, Adipocyte, 1 mM (10^−3 M), absence of insulin): 0%
- inhibition at 1000 µM ([1]; Homo sapiens, Adipocyte, 1 mM (10^−3 M), presence of insulin (1 nM)): < 5%
- liberation of fatty acids by isolated human adipocytes (conclusion) [2]: increases the liberation of fatty acids
- % Control (NEFA liberation) ([2]; 10^−2 M): 112%
- Average of the NEFA ([2]; 10^−2 M): 158 µM
- % Control (NEFA liberation) ([2]; 10^−3 M (1 mM)): 126%
- Average of the NEFA ([2]; 10^−3 M (1 mM)): 178 µM
- % Control (NEFA liberation) ([2]; 10^−4 M): 133%
- Average of the NEFA ([2]; 10^−4 M): 189 µM
- % Control (NEFA liberation) ([2]; 10^−5 M): 128%
- Average of the NEFA ([2]; 10^−5 M): 180 µM
- % Control (NEFA liberation) ([2]; 10^−6 M (1 μM)): 112%
- Average of the NEFA ([2]; 10^−6 M (1 μM)): 158 µM
- effect on liberation of NEFA ([2]; 10^−6 M and 10^−2 M): did not show significant effect
